Consider three compounds from patent US7595330B2, “Benzimidazole thiophene compounds” (SmithKline Beecham Corporation, priority 2005, dated 2009).

Where only a bound is given, the exact number is not on record here.

For one series, the target named is T1, PLK1 kinase domain (Homo sapiens, UniProt P53350).
T1 construct: made in house; host or cells: baculovirus infected T. ni cells
Briefly: Assay for inhibition of PLK1 (SPA, 33P-ATP, biotinylated peptide substrate). It counts as biochemical. The following applies: 1 μM ATP, 2 nM PLK1 kinase domain; read-out: PLK1 pIC50 (converted). The procedure:
I. Assay for Inhibition of PLK1
All procedures were performed at 4° C. Cells were lysed in 50 mM HEPES, 200 mM NaCl, 50 mM imidazole, 5% glycerol; pH 7.5. The homogenate was centrifuged at 14K rpm in a SLA-1500 rotor for 1 h and the supernatant filtered through a 1.2 micron filter. The supernatant was loaded onto a Nickel chelating Sepharose (Amersham Pharmacia) column and washed with lysis buffer. Protein was eluted using 20%, 30% and 100% buffer B steps where buffer B is 50 mM HEPES, 200 mM NaCl, 300 mM imidazole, 5% glycerol; pH 7.5. Fractions containing PLK were determined by SDS-PAGE. Fractions containing PLK were diluted five-fold with 50 mM HEPES, 1 mM DTT, 5% glycerol; pH 7.5, then loaded on an SP Sepharose (Amersham Pharmacia) column. After washing the column with 50 mM HEPES, 1 mM DTT, 5% glycerol; pH 7.5, PLK was step eluted with 50 mM HEPES, 1 mM DTT, 500 mM NaCl; 5% glycerol; pH 7.5. PLK was concentrated using a 10 kDa molecular weight cutoff membrane and then loaded onto a Superdex 200 gel filtration (Amersham Pharmacia) column equilibrated in 25 mM HEPES, 1 mM DTT, 500 mM NaCl, 5% glycerol; pH 7.5. Fractions containing PLK were determined by SDS-PAGE. PLK was pooled, aliquoted and stored at −80° C. Samples were quality controlled using mass spectrometry, N-terminal sequencing and amino acid analysis.
B. Enzyme activity +/− inhibitors was determined as follows: All measurements were obtained under conditions where signal production increased linearly with time and enzyme. Test compounds were added to white 384-well assay plates (0.1 μL for 10 μL and some 20 μL assays, 1 μL for some 20 μL assays) at variable known concentrations in 100% DMSO. DMSO (1-5% final, as appropriate) and EDTA (65 mM in reaction) were used as controls.
Reaction Mix (10 or 20 μL) was quickly added to each well immediately following addition of enzyme via automated liquid handlers and incubated 1-1.5 h at 22° C. The 20 μL enzymatic reactions were stopped with 50 μL of stop mix (50 mM EDTA, 4.0 mg/ml Streptavidin SPA beads in Standard Dulbecco's PBS (without Mg^2+ and Ca^2+), 50 μM ATP) per well. The 10 μL reactions were stopped with 10 μL of stop mix (50 mM EDTA, 3.0 mg/mL Streptavidin-coupled SPA Imaging Beads (“LeadSeeker”) in Standard Dulbecco's PBS (without Mg^2+ and Ca^2+), 50 μM ATP) per well. Plates were sealed with clear plastic seals, spun at 500×g for 1 min or settled overnight, and counted in Packard TopCount for 30 seconds/well (regular SPA) or imaged using a Viewlux imager (LeadSeeker SPA). Signal above background (EDTA controls) was converted to percent inhibition relative to that obtained in control (DMSO-only) wells.

Another series concerns HCT116. The series can be described thus: Methylene blue growth inhibition assay, HCT116. It counts as cell-based. Conditions: Homo sapiens, HCT-116; methylene blue, 72 h, HCT116; read-out: HCT116 IC50. On the procedure:
(§1) II. Methylene Blue Growth Inhibition Assay—Inhibition of Cell Proliferation by PLK1 Inhibitors
(§2) Generally, exponentially growing cell lines of different tumor origins, cultured in appropriate media containing 10% fetal bovine serum at 37° C. in a 5% CO2 incubator were plated at low density (less than 2000 cells/well) in 96-well plates. […]. Seventy two hours post-treatment, cell numbers were determined using 100 μl per well of methylene blue (Sigma M9140) (0.5% in 50:50 Ethanol:water). Stain was incubated at room temperature for 30 minutes before plates were rinsed and dye solubilized in 1% N-lauroyl sarcosine, sodium salt, (Sigma L5125, in PBS) (further details of a methylene blue assay are described below). Plates were read on a microplate reader, measuring the OD at 620 nm.
(§3) . The data are shown in Table 1 below and represent a compilation of several different experiments, each performed using the general parameters outlined above, although minor variations may have been employed in some instances.
(§4) In one assay, normal human foreskin fibroblasts (HFF), human colon (HCT116, RKO), lung (H460, A549) and breast (MCF7) tumor cell lines were cultured in high glucose DMEM (Life Technologies) containing 10% fetal bovine serum (FBS) at 37° C. in a humidified 5% CO2, 95% air incubator. Cells were harvested using trypsin/EDTA, counted using a haemocytometer, and plated in 100 μL of culture media per well, at the following densities, in a 96-well tissue culture plate (Falcon 3075): HFF 5,000 cells/well, HCT116 3,000 cells/well, RKO 2,500 cells/well, H460 2,500 cells/well, A549 5,000 cells/well, MCF7 4,000 cells/well. The next day, compounds were diluted in low glucose DMEM containing 100 μg/mL gentamicin, at twice the final required concentration, from 10 mM stock solutions in DMSO. 100 μL/well of these dilutions were added to the 100 μL of media currently in the assay plates. Medium containing 0.6% DMSO was added to control wells. The final concentration of DMSO in all wells was 0.3%. Cells were incubated at 37° C., 5% CO2 for 72 h. Medium was removed by aspiration. Cell biomass was estimated by staining cells with 80 μL per well methylene blue (Sigma M9140, 0.5% in 50:50 ethanol:water), and incubation at room temperature for 30-60 min. Stain was removed by aspiration and the plates rinsed by immersion in water, then air-dried. To release stain from the cells, 100 μL of solubilization solution was added (1% N-lauroyl sarcosine, Sodium salt, Sigma L5125, in PBS), and plates were shaken gently for about 30 min. Optical density at 620 nm was measured on a microplate reader. Percent inhibition of cell growth was calculated relative to vehicle treated control wells. […].

For a further series, the system named is H460. Briefly: Methylene blue growth inhibition assay, H460. The class given is cell-based. Conditions: Homo sapiens, NCI-H460; methylene blue, 72 h, H460; read-out: H460 IC50. The procedure: as §1, §2, §3, §4
A further series deals with MCF7. The series can be described thus: Methylene blue growth inhibition assay, MCF7. The class given is cell-based. The following applies: Homo sapiens; methylene blue, 72 h, MCF7; read-out: MCF7 IC50. On the procedure: as §1, §2, §3, §4
The next series deals with A549. The series can be described thus: Methylene blue growth inhibition assay, A549. Conditions: Homo sapiens; methylene blue, 72 h, A549; read-out: A549 IC50. The class given is cell-based. The procedure: as §1, §2, §3, §4
For a further series, the system named is RKO. Briefly: Methylene blue growth inhibition assay, RKO. It counts as cell-based. The following applies: Homo sapiens, methylene blue, 72 h, read-out: RKO IC50. On the procedure: as §1, §2, §3, §4
The test system of series [1] is normal human foreskin fibroblasts (HFF). The series can be described thus: Methylene blue growth inhibition assay, HFF. It counts as cell-based. The following applies: Fibroblast, methylene blue, 72 h, HFF normal fibroblasts, read-out: HFF IC50. The procedure: as §1, §2, §3, §4
The subject of the next series is human plasma proteins. The series can be described thus: Protein binding to human plasma proteins using equilibrium dialysis. Conditions: pH 7.4, equilibrium dialysis 6 h, 37° C. The class given is in vitro ADME. On the procedure: III. Determination of Protein Binding to Human Plasma Proteins Using Equilibrium Dialysis
96 Well Plate (High Throughput Dialysis): Stock solutions of compounds were spiked into human plasma at a target concentration of 2000 ng/mL. The mixture was inverted gently several times to insure homogeneity and triplicate 50 μL aliquots were collected to verify initial concentrations. Following assembly of dialysis plate (HTDialysis membrane strips, molecular weight cut off limit of 12,000-14,000 daltons), spiked plasma (150 μL) was placed in the donor compartment of the well and Phosphate Buffered Saline pH 7.4 (150 μL) in the receiver compartment. Eight wells were set up per compound and plasma type. Plate was placed in a 37° C. incubator on a plate shaker. Following the 6 h incubation period, the plate was removed. Single 50 μL aliquots from each donor and receiver compartment (per well) were analyzed. Sample analysis was by LC/MS/MS (results reported as Drug Peak Area/Internal Standard Peak Area ratios). Protein binding assay can also be performed using dialysis cells instead of HT Dialysis 96 well plates. In Table 1, % Protein Binding, +=>98%; ++=95-98%: +++=<95%.

A short description of series [2]: High throughput solubility assay. Conditions: aqueous buffer, pH 7.4, 0.05M phosphate buffer. The class given is physicochemical. The procedure: IV. High Throughput Solubility Assay
Two samples are prepared for each compound. One (the standard sample) contains the compound at a fixed concentration of 20 μM in an aqueous/organic mixed solvent cocktail. The other (the test sample) contains the compound at a maximum concentration of 200 μM in pH 7.4, 0.05M phosphate buffer and shaking for 24 h. The test sample is filtered by 0.45μ filter and then spun for 10 min to remove any undissolved solid. HPLC analyses are preformed on these samples. The peak areas are used for computing solubility.

T1 sequence (P53350 21-346): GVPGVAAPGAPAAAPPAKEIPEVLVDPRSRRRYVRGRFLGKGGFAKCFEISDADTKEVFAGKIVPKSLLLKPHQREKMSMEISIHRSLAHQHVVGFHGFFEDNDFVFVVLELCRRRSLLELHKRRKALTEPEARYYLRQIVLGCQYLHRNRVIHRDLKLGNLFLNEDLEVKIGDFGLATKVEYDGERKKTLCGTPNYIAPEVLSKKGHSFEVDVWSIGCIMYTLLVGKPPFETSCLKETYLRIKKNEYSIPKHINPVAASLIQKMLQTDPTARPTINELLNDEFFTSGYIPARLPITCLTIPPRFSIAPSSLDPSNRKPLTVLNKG

With `C[C@@H](Oc1cc(-n2cnc3ccc(CS(C)(=O)=O)cc32)sc1C(N)=O)c1ccccc1Cl` [Example 2, 3-{[(1R)-1-(2-Chlorophenyl)ethyl]oxy}-5-{6-[(methylsulfonyl)methyl]-1H-benzimidazol-1-yl}-2-thiophenecarboxamide], the IC50 on PLK1 kinase domain is less than 10 nM; in the series with HCT116, less than 100 nM; in the series on H460, less than 100 nM; in the series on MCF7, less than 100 nM; in the series on A549, less than 100 nM; in the series with RKO, less than 100 nM. Also, in series [1], the IC50 fell in the range of 100 to 1000 nM. Moreover, in the series on human plasma proteins, the fraction unbound at 6 h, 2000 ng/mL lay within 0.02 to 0.05. Further, in series [2], the solubility at 24 h was in the range of 30 to 100 µM.

Turning to `COc1cc2ncn(-c3cc(OC(C)c4ccccc4C(F)(F)F)c(C(N)=O)s3)c2cc1OC` (stereo not drawn) [Com. Ex 127, reference compound], the IC50 on PLK1 kinase domain is less than 10 nM; in the series on HCT116 it was 100 to 1000 nM; with H460 it was less than 100 nM; with MCF7, 100 to 1000 nM; in the series on A549 it was less than 100 nM; in the series on RKO, less than 100 nM. In addition, the IC50 in series [1] was more than 1000 nM. Also, the fraction unbound at 6 h, 2000 ng/mL with human plasma proteins is less than 0.02. Further, the solubility at 24 h in [2] is less than 30 µM.

Consider `NC(=O)c1sc(-n2cnc3ccc(OCC4CCNCC4)cc32)cc1OCc1ccccc1C(F)(F)F` [Com. Ex 143, reference compound], for which the IC50 on PLK1 kinase domain is 10 to 1000 nM; in the series on HCT116, 100 to 1000 nM; in the series with H460, more than 1000 nM; with MCF7, 100 to 1000 nM; with A549, more than 1000 nM; with RKO it was 100 to 1000 nM. Further, the IC50 in series [1] is more than 1000 nM. Also, the fraction unbound at 6 h, 2000 ng/mL in the series on human plasma proteins is more than 0.05. Besides, the solubility at 24 h in series [2] was less than 30 µM.

The fraction unbound is the share of the substance not bound to proteins or other matrix. A higher fraction unbound goes with much free substance. As usually defined, the solubility is how much of the substance goes into solution per volume.
